How the values were obtained:
Format in all cases: physicochemical
[1] = Furfural and 5-hydroxymethylfurfural in headspace of heated solutions; details: solutions in water
Description: The solutions were rapidly heated to set temperatures and held at temperature for 5 min. After 5 min, the samples were rapidly cooled. […] (FIG. 18). The data is also plotted in FIG. 18 until 180° C.

[2] = Breakdown products by GCMS without an amino acid present; details: pH 7, 160° C., 10 min
Description: (§1) Controls were prepared addition of 1 mL of pH 7 buffer to the amino acids. The samples were rapidly heated to 160° C. and held at this temperature for 10 min. Samples were rapidly cooled afterwards, and absorbance at 500 nm was measured for each reaction mixture. Volatiles were analysed using gas chromatography mass spectrometry (GCMS) analysis. An Agilent Technologies 5975B Inert XL MSD gas chromatography, single quadruple mass spectrometer was used for analysis of volatiles. Samples were added to separate GCMS headspace vials and weighed. 0.03 g of 0.01% 3-heptanone in water was added and the vial was sealed for GCMS solid phase micro extraction (SPME) analysis. Samples were analysed in a randomized order. Samples were incubated and agitated at 250 RPM, at 60° C. for 15 min prior to SPME analysis of volatiles. The SPME fibre (50/30 DVB/CAR/PDMS, 23 Ga) extracted for 10 min, then thermally desorbed at 250° C. for 5 min. A 30 m×0.25 mm×0.25 μm HP-5MS column was used (Phenomenex, UK). Oven temperature settings: 31° C.-5 min, 5° C./min to 150° C., 30° C./min to 240° C. Inlet settings: 250° C., pressure 10.4 psi, flow 11.2 mL/min, split ratio 7:1. MS operated in full scan mode from 40 to 400 m/z with a scan time of 0.2s. The peak area of the aroma compounds was compared to the peak of the internal standard 3-heptanone and corrected for the weight of the sample.
(§2) The concentration of the different classes of Maillard reaction breakdown products is presented in Tables 9B-E. The same data as Tables 9B-E is also presented in FIG. 27. Concentrations are in parts per billion of the difference non-enzymatic breakdown products for the different compositions at 160° C. analysed by GCMS.

[3] = Breakdown products by GCMS after Maillard reaction in the presence of Leucine; details: 160° C.
Description: as §1, §2

[4] = Breakdown products by GCMS after Maillard reaction in the presence of Histidine; details: 160° C.
Description: as §1, §2

[5] = Non-enzymatic breakdown products in confectionery mixtures (milk, butter, saccharides); details: final confectionery mixture
[6] = Carbonyls/ketones, Maillard reaction in the presence of Leucine, GCMS
[7] = Furans, Maillard reaction in the presence of Leucine, GCMS
[8] = Pyrazines, Maillard reaction in the presence of Leucine, GCMS

temperature at which HMF concentration increased [1]: 180 °C
Concentration of 2-Butanone [2]: 178.52 ppb
Concentration of 2-Propanone, 1-hydroxy- [2]: 96.48 ppb
Concentration of 5-methyl furfural [2]: 0 ppb
Concentration of Diacetyl (2,3-Butanedione) [2]: 245.45 ppb
Concentration of Furan, 2-methyl- [2]: 0 ppb
Concentration of Furfural [2]: 1.42 ppb
2-Butanone concentration [3, 6]: 9.73 ppb
2-Propanone, 1-hydroxy- concentration [3, 6]: 45.73 ppb
Diacetyl (2,3-Butanedione) concentration [3, 6]: 41.79 ppb
Furan, 2-methyl- concentration [3, 7]: 0.42 ppb
Furfural concentration [3, 7]: 0.16 ppb
Pyrazine, 2,5-diethyl- concentration [3, 8]: 24.28 ppb
Pyrazine, 2,5-dimethyl- concentration [3, 8]: 2111.75 ppb
Pyrazine, 2-ethyl-5-methyl- concentration [3, 8]: 554.43 ppb
Pyrazine, ethyl- concentration [3, 8]: 8.8 ppb
Pyrazine, methyl- concentration [3, 8]: 20.49 ppb
Isovaleraldehyde (Butanal, 3-methyl-) concentration ([3]; Strecker aldehydes, Maillard reaction in the presence of Leucine, GCMS): 3412.25 ppb
Isovaleraldehyde concentration ([3]; with leucine): 3400 ppb
2-Butanone concentration ([4]; Carbonyls/ketones): 1.44 ppb
2-Propanone, 1-hydroxy- concentration ([4]; Carbonyls/ketones): 14.57 ppb
Diacetyl (2,3-Butanedione) concentration ([4]; Carbonyls/ketones): 1.62 ppb
Furan, 2-methyl- concentration ([4]; Furans): 0 ppb
Furfural concentration ([4]; Furans): 0.03 ppb
Pyrazine, 2,5-diethyl- concentration ([4]; Pyrazines): 0.48 ppb
Pyrazine, 2,5-dimethyl- concentration ([4]; Pyrazines): 175.23 ppb
Pyrazine, 2-ethyl-5-methyl- concentration ([4]; Pyrazines): 34.95 ppb
Pyrazine, ethyl- concentration ([4]; Pyrazines): 0.14 ppb
Pyrazine, methyl- concentration ([4]; Pyrazines): 0 ppb
Concentration of 3-methyl-3-(2-oxopropylamino)butan-2-one [5]: 0.00 ppb
Concentration of Acetic acid [5]: 0.01 ppb
Concentration of Benzaldehyde [5]: 0.13 ppb
Concentration of Furfural [5]: 0.01 ppb
Concentration of Isovaleraldehyde [5]: 0.17 ppb
SMILES: OC[C@H]1O[C@@](CO)(O[C@H]2O[C@H](CO)[C@@H](O)[C@H](O)[C@H]2O)[C@@H](O)[C@@H]1O [Sucrose]
